Assays:
[1] = system: tumor tissues in human lung cancer cell line Calu-6 tumor-bearing mice; test: Example 8: immunochemical staining of iNOS, macrophage (F4/80) and nitrotyrosine in Calu-6 tumor tissue; type: in vivo, nude mice
Description: The dose of FK330 is expressed in terms of the weight of a simple substance (non-hydrate). A paclitaxel injectable preparation (paclitaxel injection liquid “Sawai”) was purchased from Sawai Pharmaceutical Co., Ltd., and was used as paclitaxel. Rat anti-mouse F4/80 antigen monoclonal antibody, rabbit anti-iNOS polyclonal antibody, and rabbit anti-nitrotyrosine antibody were respectively purchased from AbD Serotec (Oxford, UK), Santa Cruz Biotechnology, Inc. (Santa Cruz, Calif., US), and Millipore Corp. (Billerica, Mass., USA) and used.
FK330 was suspended (20 mg/mL) in a 0.5% aqueous methyl cellulose solution (0.5% MC) and orally administered. Paclitaxel was prepared with physiological saline for injection (Otsuka Pharmaceutical Group) to a concentration of 1 mg/mL at the time of use.
Human lung cancer-derived Calu-6 (HTB-56) was obtained from American Type
Culture Collection (VA, USA). The cells were cultured under the conditions of 37° C. and 5% CO2 by using RPMI1640 medium containing 10% heat-inactivated fetal bovine serum (FBS). The cells were harvested with trypsin and were suspended in PBS at 6×10^7 cells/mL, and the suspension was mixed with an equal amount of Matrigel (trade name) Basement Membrane Matrix (manufactured by Becton Dickinson Co., Bedford, Mass., USA).
(§1) Five-week old male nude mice (CAnN Cg-Foxn1nu/CrlCrlj(nu/nu)) were purchased from Charles River Laboratories Japan, Inc. (Japan, Kanagawa). The animals were raised under specific pathogen-free (SPF) conditions throughout the test period by feeding standard feedstuff and drinking water. The cultured cells were subcutaneously inoculated into the dorsal region of the nude mice at a concentration of 3×10^6 cells/0.1 mL/mouse. Nude mice which had the tumor volumes (major axis×[minor axis]^2×0.5) ranging from 136.8 mm^3 to 248.5 mm^3 were assigned by using SAS to minimize the fluctuation in the tumor volume between the groups and within the group.
Drug administration was initiated from the first day of administration (Day 0). The respective groups (n=5) were treated as follows. FK330 was orally gavaged in an amount of 5 mL/kg from Day 0 to Day 6, and paclitaxel was intravenously administered through the tail vein in an amount of 10 mL/kg from Day 0 to Day 5.
FK330 single administration group: FK330 100 mg/kg bid (200 mg/kg/day, from Day 0 to Day 6)
Paclitaxel single administration group: Paclitaxel 10 mg/kg/day (from Day 0 to Day 5)
Combined use group: FK330 100 mg/kg bid (200 mg/kg/day, from Day 0 to Day 6)+paclitaxel 10 mg/kg/day (from Day 0 to Day 5)
FK330 was orally gavaged (5 mL/kg) twice a day at an interval of 6 to 8 hours. Paclitaxel was administered by intravenous bolus injection (10 mL/kg) through the tail vein 1 to 4 hours after the administration of FK330.
On Day 6, the tumor tissues were harvested from the mice. Immersion fixation was carried out at 4° C. for 12 hours with a 4% para-formaldehyde-phosphate buffer solution (Wako Pure Chemical Industries, Ltd.). After the tissue fixation, according to the conventional method, sucrose replacement was carried out using 10%, 15% and 20% sucrose/phosphate buffer solutions in a stepwise manner at 4° C. After completion of the replacement, the cancer tissues were embedded in O.C.T. Compound (Toronto Research Chemicals, Inc., Toronto, Canada), and frozen blocks were prepared with dry ice/acetone and stored at −80° C.
Frozen sections at 5 μm thickness were prepared by a cryostat (Sakura Finetech Japan Co., Ltd.) and were air-dried. The dried frozen sections were washed with a 4% para-formaldehyde-phosphate buffer solution, and then in order to inactivate the endogenous peroxidase activity, the sections were treated for 30 minutes with 0.3% hydrogen peroxide/methanol. Mouse macrophage, iNOS and nitrotyrosine staining was carried out by the following procedure. In regard to the iNOS and nitrotyrosine staining, antigen retrieval was carried out by microwave irradiation (3 minutes/500 W) before the immunochemical staining. […]

[2] = system: human non-small cell lung cancer (Calu-6); test: Example 4: administration timing of FK330 with paclitaxel in Calu-6 tumor-bearing mice; type: in vivo, nude mice; settings: Day 55; for tumor volume at the end of the study: mean±SEM
Method: Preparation of the test substances and conditioning of the cells were carried out in the same manner as in Example 2.
as §1, with “axis]^2×0.52)” for “axis]^2×0.5)”, “142.1” for “136.8”, “359.1” for “248.5”
The first day of administration was designated as Day 0, and observation was made until Day 55. The respective groups (n=5 or 6) were treated as follows. FK330 was orally gavaged in an amount of 5 mL/kg, and paclitaxel was administered intravenously through the tail vein in an amount of 10 mL/kg. Paclitaxel was continuously administered from Day 0 to Day 5, was subsequently withdrawn for 22 days, and then was continuously administered for 5 days from Day 28 to Day 32.
Paclitaxel single administration group: Paclitaxel 10 mg/kg/day (from Day 0 to Day 5, and from Day 28 to Day 32)
Concomitant administration, FK330 100 mg/kg bid (200 mg/kg/day)+paclitaxel 10 mg/kg/day (from Day 0 to Day 5, and from Day 28 to Day 32)
Sequential administration, FK330 100 mg/kg bid (200 mg/kg/day)+paclitaxel 10 mg/kg/day (from Day 0 to Day 5, and from Day 28 to Day 32)
Continuous administration, FK330 100 mg/kg bid (200 mg/kg/day)+paclitaxel 10 mg/kg/day (from Day 0 to Day 5, and from Day 28 to Day 32)
FK330 was orally gavaged (5 mL/kg) twice a day at an interval of 6 to 8 hours. In the Concomitant administration, FK330 was administered on the days of administration of paclitaxel (from Day 0 to Day 5, and from Day 28 to Day 32); and in the […] administration, FK330 was administered on the withdrawal days after the days of administration of paclitaxel (from Day 6 to Day 27, and from Day 33 to Day 55), while the continuous administration was carried out for all days from the day of experiment initiation to the day of experiment completion. Paclitaxel was administered by intravenous bolus injection (10 mL/kg) through the tail vein 2 to 4 hours after the administration of FK330.
Every 3 to 4 days, the body weight and the tumor diameters, determined by using a digital caliper, were measured. The tumor volume was calculated from the calculation formula for ellipsoid volume of (major axis×[minor axis]^2×0.52).

[3] = combined use: FK330 100 mg/kg bid p.o. Day 0 to Day 6 + paclitaxel 10 mg/kg/day, Day 6
[4] = paclitaxel 10 mg/kg/day i.v. Day 0 to Day 5 alone, tumor harvested Day 6

Row | Structure (SMILES) | iNOS protein expression in the tumor [1, 3] | macrophage infiltration in the tumor [1, 3] | nitrotyrosine production in the tumor [1, 3] | tumor volume reduction ratio compared with the paclitaxel-only group ([2]; concomitant administration of FK330 100 mg/kg bid + paclitaxel) [%] | tumor volume at the end of the study ([2]; concomitant administration of paclitaxel and FK330 100 mg/kg bid (FK330 on paclitaxel days only)) [mm^3] | tumor volume at the end of the study ([2]; continuous administration of FK330 100 mg/kg bid (all days) + paclitaxel) [mm^3] | tumor volume reduction ratio compared with the paclitaxel-only group ([2]; continuous administration of FK330 100 mg/kg bid + paclitaxel) [%] | tumor volume at the end of the study ([2]; sequential administration of FK330 100 mg/kg bid (on paclitaxel withdrawal days) + paclitaxel) [mm^3] | tumor volume reduction ratio compared with the paclitaxel-only group ([2]; sequential administration of FK330 100 mg/kg bid + paclitaxel) [%] | amount of nitrotyrosine (major end-product of NO) in the tumor tissue [1, 4] | iNOS protein expression in the tumor tissue [1, 4] | infiltration of macrophages (F4/80) in the tumor tissue [1, 4] | tumor volume at the end of the study ([2]; paclitaxel-only group, 10 mg/kg/day i.v. Day 0-5 and Day 28-32) [mm^3]
1 | O=C(/C=C/c1ccc(Cl)cc1)N[C@@H](Cc1ccccn1)C(=O)NCC(=O)N1CCC(Oc2cc(C(F)(F)F)ncn2)CC1 [FK330, N^2-[(2E)-3-(4-chlorophenyl)-2-propenoyl]-N-[2-oxo-2-(4-{[6-(trifluoromethyl)pyrimidin-4-yl]oxy}piperidin-1-yl)ethyl]-3-pyridin-2-yl-L-alaninamide] | did not affect | did not affect | suppressed | 54.5 | 559.8±161.8 | 168.5±66.0 | 86.3 | 1150.9±264.9 | 6.4 | – | – | – | –
2 | CC(=O)O[C@H]1C(=O)[C@@]2(C)[C@H]([C@H](OC(=O)c3ccccc3)[C@]3(O)C[C@H](OC(=O)[C@H](O)[C@@H](NC(=O)c4ccccc4)c4ccccc4)C(C)=C1C3(C)C)[C@]1(OC(C)=O)CO[C@@H]1C[C@@H]2O [paclitaxel, reference compound] | – | – | – | – | – | – | – | – | – | increased | very clearly accentuated | clearly recognized | 1229.2±289.6

From patent US20140066385A1, “METHOD FOR TREATING CANCER BY COMBINED USE OF DRUGS” (Astellas Pharma Inc., priority 2011, published 2014)
